Test [1] relates to Saccharomyces cerevisiae. Description: DNA damaging activity against Saccharomyces cerevisiae 1140 assessed as concentration required to produce 12 mm zone of inhibition. The format is functional.
Test [2] deals with Saccharomyces cerevisiae. Kind of test: DNA damaging activity against Saccharomyces cerevisiae Sc7 assessed as concentration required to produce 12 mm zone of inhibition. The format is functional.
Test [3] has as its system Saccharomyces cerevisiae. Kind of test: DNA damaging activity against Saccharomyces cerevisiae 1138 assessed as concentration required to produce 12 mm zone of inhibition. The format is functional.
Test [4] concerns Saccharomyces cerevisiae. Kind of test: DNA damaging activity against Saccharomyces cerevisiae 1353 assessed as concentration required to produce 12 mm zone of inhibition. The test is classed as functional.
In the next test the test system is A2780. Description: Cytotoxicity against human A2780 cells. The test is classed as functional, cell-based.

In general, IC50 refers to the concentration needed to halve the response being measured. Higher therefore signals weaker potency in that assay.

In brackets after ≈: the same amount, converted by molar mass.

With `CC(=O)N[C@H]1[C@H](O[C@H]2CC[C@]3(C)[C@H]4CC=C5[C@@H]6CC(C)(C)CC[C@]6(C(=O)O)CC[C@@]5(C)[C@]4(C)CC[C@H]3C2(C)C)O[C@H](CO[C@@H]2OC[C@H](O)[C@H](O)[C@H]2O[C@@H]2OC[C@H](O)[C@H](O)[C@H]2O)[C@@H](O)[C@@H]1O`, the Activity with Saccharomyces cerevisiae [1] is 40 µg/mL; with Saccharomyces cerevisiae [2] it was 45 µg/mL; in the test with Saccharomyces cerevisiae [3], 25 µg/mL; in the test with Saccharomyces cerevisiae [4] it was 30 µg/mL. The same compound yielded an IC50 in the test with A2780 of 0.8 µg/mL (≈ 0.866 µM).

For the compound `CC(=O)N[C@H]1[C@H](O[C@H]2CC[C@]3(C)[C@H]4CC=C5[C@@H]6CC(C)(C)CC[C@]6(C(=O)O)CC[C@@]5(C)[C@]4(C)CC[C@H]3C2(C)C)O[C@H](CO[C@@H]2OC[C@H](O)[C@H](O)[C@H]2O[C@@H]2OC[C@@H](O)[C@H](O)[C@H]2O)[C@@H](O)[C@@H]1O` [ALBIZIATRIOSIDE A], the Activity stood at 35 µg/mL with Saccharomyces cerevisiae [1], 30 µg/mL with Saccharomyces cerevisiae [2], 30 µg/mL with Saccharomyces cerevisiae [3] and 35 µg/mL in the test on Saccharomyces cerevisiae [4]. The same compound yielded an IC50 in the test with A2780 of 0.9 µg/mL (≈ 0.974 µM).

The values are drawn from ChEMBL document CHEMBL1150823, “Two bioactive saponins from Albizia subdimidiata from the Suriname rainforest” (J Nat Prod, 2001).
